Source: patent US7939568B2, “Use of a composition comprising vitamin K1 oxide or a derivative thereof for the treatment and/or the prevention of mammal dermatological lesions” (Auriga International S.A., priority 2003, dated 2011)

Experiments:
[1] = Transformation in presence of light; type: physicochemical
Source text: The improved stability of vitamin K1 oxide compared to vitamin K1, reduces also unexpectedly the side effects of a cosmetic composition. […] Such transformation of vitamin K1 oxide is not observed in the presence of light and these side effects are not present when the cosmetic composition according to the invention is applied upon mammal skin.

[2] = Formation of chromophoric group on mixing with retinol; type: physicochemical; settings: mixing with retinol (or retinol palmitate)

Structure (SMILES) | transformation into Menadione (vitamin K3) and 1.4.Naphtoquinone [1] | formation of chromophoric group [2]
CC(=CCC12OC1(C)C(=O)c1ccccc1C2=O)CCCC(C)CCCC(C)CCCC(C)C (stereo not drawn) [vitamin K1 oxide] | not observed | does not allow the formation of chromophoric group
CC1=C(C/C=C(\C)CCC[C@H](C)CCC[C@H](C)CCCC(C)C)C(=O)c2ccccc2C1=O [vitamin K1, 2-methyl 3-phytyl-1,4-naphtoquinone] | transformed into Menadione (vitamin K3) and 1.4.Naphtoquinone | 
